Holding throughout (assay type): biochemical
One test has as its target T1, human Aurora A (Homo sapiens, UniProt O14965).
T1 construct: Histidine tag (N); host or cells: Sf9 insect cells (baculovirus)
T1 sequence (O14965 1-403): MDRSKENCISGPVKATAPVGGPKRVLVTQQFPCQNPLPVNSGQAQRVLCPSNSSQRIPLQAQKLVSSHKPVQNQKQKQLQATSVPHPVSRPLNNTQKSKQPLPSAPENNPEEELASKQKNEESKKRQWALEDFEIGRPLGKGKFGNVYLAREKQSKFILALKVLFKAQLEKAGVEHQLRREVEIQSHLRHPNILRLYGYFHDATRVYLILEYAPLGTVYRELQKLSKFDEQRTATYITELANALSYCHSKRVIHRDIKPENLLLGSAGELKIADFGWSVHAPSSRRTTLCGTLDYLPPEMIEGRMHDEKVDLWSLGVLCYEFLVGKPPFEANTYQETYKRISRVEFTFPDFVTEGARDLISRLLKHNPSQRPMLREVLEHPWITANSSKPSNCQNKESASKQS
In words: Aurora A kinase assay (DELFIA enzyme inhibition). The settings on record: read-out: Aurora A IC50. The gist of the method:
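DELFIA read-out (time-resolved Eu fluorescence, 620 nm emission) after Neutravidin capture of biotinylated peptide substrate and antibody detection. Reaction: Ni-agarose-purified Aurora A, 30 min at room temperature, stopped with 100 mM EDTA.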

The next test concerns the target T2, human FLT4 (Homo sapiens, UniProt P35916).
T2 construct: a construct expressing the human FLT4 (789-1207) with an amino terminal GST tag; host or cells: Sf9 insect cells (baculovirus)
In words: FLT4 kinase assay (DELFIA enzyme inhibition). The conditions noted are these: read-out: FLT4 IC50. In short, it runs like this: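 Read-out is DELFIA: biotinylated MET Tyr1253-derived peptide captured on Neutravidin, phosphotyrosine detected by Eu-antibody time-resolved fluorescence. Enzyme is Sf9-expressed GST-FLT4 (789-1207), reacting 30 min at room temperature before EDTA stop. IC50 derived from plotted % inhibition.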

The next test deals with T3, human FLT3 (Homo sapiens, UniProt P36888).
T3 construct: a construct expressing the human FLT3 (564-993) with an amino terminal GST tag; host or cells: Sf9 insect cells (baculovirus)
T3 sequence (P36888 564-993): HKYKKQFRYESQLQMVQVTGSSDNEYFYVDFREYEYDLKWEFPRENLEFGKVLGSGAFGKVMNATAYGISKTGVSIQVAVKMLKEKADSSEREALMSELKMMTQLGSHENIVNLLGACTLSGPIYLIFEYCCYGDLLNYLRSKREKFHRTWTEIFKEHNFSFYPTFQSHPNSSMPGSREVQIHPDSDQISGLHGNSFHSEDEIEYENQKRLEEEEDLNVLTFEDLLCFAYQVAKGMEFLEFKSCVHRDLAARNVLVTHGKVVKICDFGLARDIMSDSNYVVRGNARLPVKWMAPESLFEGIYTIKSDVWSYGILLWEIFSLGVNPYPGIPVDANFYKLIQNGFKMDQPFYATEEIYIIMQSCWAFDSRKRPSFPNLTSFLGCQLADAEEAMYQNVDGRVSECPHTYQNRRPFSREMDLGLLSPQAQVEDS
In words: FLT3 kinase assay (DELFIA enzyme inhibition). The method, then: A GST-kinase fusion protein of 70 KDa was produced using sf9 baculovirus expression system, with a construct expressing the human FLT3 (564-993) with an amino terminal GST tag. The protein was purified by one-step affinity chromatography using glutathione-agarose.
FLT3 enzyme activity is determined using a Dissociation Enhanced Lanthanide Fluorescent Immunoassay (DELFIA) with a peptide substrate derived from the Gastrin Precursor (Tyr 87) peptide […] with a core sequence: EAYGW.
The amount of phosphorylated peptide produced is detected by means of a phospho-Tyrosine specific Europium-labelled antibody using Time-Resolved Fluorescence at Excitation 360-35 nm and Emission 620-35 nm.
Assay reactions are set up in a 25 uL final volume on a 96 well plate. […] The reaction is allowed to proceed for 30 minutes at room temperature before stopping with 100 μL Stop solution comprising of 100 mM EDTA, 1×BSA blocker in TBS (Perbio) and 0.05% Surfact-Amps20 (Perbio).
The stopped reaction is transferred to a black 96-well Neutravidin-coated plate (Perbio) and incubated for 30 minutes to capture the biotinylated peptide substrate. After washing wells 3 times with 200 uL TBS/T buffer, Anti-Phospho-Tyr-100 antibody labelled with Eu—N1 (Perkin Elmer AD0159) is added to all wells for 60 minutes at room temperature. After a repeat washing step, DELFIA Enhancement solution (Perkin Elmer) is added to all wells for 5 minutes and the fluorescence measured on a plate reader Analyst HT (Molecular Devices).
The % inhibition of the activity is calculated and plotted in order to determine the concentration of test compound required to inhibit 50% of the enzyme activity (IC50).

pIC50: −log10 of the molar value. Some results are limits rather than exact numbers.

T2 sequence (P35916 789-1207): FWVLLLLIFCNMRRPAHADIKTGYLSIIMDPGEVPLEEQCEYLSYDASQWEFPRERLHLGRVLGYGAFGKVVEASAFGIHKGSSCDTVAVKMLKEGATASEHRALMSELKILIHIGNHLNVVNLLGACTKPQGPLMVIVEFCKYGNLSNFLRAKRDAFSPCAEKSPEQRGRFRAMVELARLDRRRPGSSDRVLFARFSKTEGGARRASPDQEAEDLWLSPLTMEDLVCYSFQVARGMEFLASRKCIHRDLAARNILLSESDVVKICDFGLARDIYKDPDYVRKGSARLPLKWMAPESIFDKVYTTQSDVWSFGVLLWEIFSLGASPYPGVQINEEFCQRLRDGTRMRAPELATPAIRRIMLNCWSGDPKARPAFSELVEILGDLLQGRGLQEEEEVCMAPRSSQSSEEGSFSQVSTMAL

As to `NC(=O)c1nc(-c2c(F)cccc2N2CCC(O)CC2)oc1-c1ccc(OCCN2CCC(O)CC2)cc1` [Example S-3, 2-(2-fluoro-6-(4-hydroxypiperidin-1-yl)phenyl)-5-(4-(2-(4-hydroxypiperidin-1-yl)ethoxy)phenyl)oxazole-4-carboxamide], the pIC50 at human Aurora A, on human FLT4 and on human FLT3 was greater than 4.00 throughout.

For `CN1CCN(C(=O)c2ccc(Nc3oc(-c4c(F)cccc4F)nc3C(N)=O)cc2)CC1CO` (stereo not shown) [Example U-25, 2-(2,6-difluorophenyl)-5-(4-(2-(hydroxymethyl)-1-methylpiperazine-4-carbonyl)phenylamino)oxazole-4-carboxamide], the pIC50 at human Aurora A, on human FLT4 and against human FLT3 was greater than 5.00 in each case.

On to `CNS(=O)(=O)c1ccc(Nc2oc(-c3c(F)cccc3F)nc2C(N)=O)cc1` [Example Q-27, 2-(2,6-difluorophenyl)-5-(4-(N′-methylsulfonamide)phenylamino)oxazole-4-carboxamide], for which the negative logarithm of the IC50 (pIC50) on human Aurora A, on human FLT4 and on human FLT3 was greater than 5.00 throughout.

As to `CC(=O)N1CCN(c2ccc(-c3oc(-c4c(F)cccc4F)nc3C(N)=O)cc2)CC1` [Example I-1, 5-(4-(4-acetylpiperazin-1-yl)phenyl)-2-(2,6-difluorophenyl)oxazole-4-carboxamide], the pIC50 at human Aurora A, at human FLT4 and against human FLT3 was greater than 5.00 in each case.

For `NC(=O)c1nc(-c2c(Cl)cccc2Cl)oc1-c1ccc(OCCN2CCCCC2)cc1` [Example F-25, 2-(2,6-dichlorophenyl)-5-(4-(2-(piperidin-1-yl)ethoxy)phenyl)oxazole-4-carboxamide], the negative-log IC50 (pIC50) on human Aurora A, on human FLT4 and against human FLT3 was greater than 5.00 throughout.

In the case of `NC(=O)c1nc(-c2c(F)cccc2F)oc1-c1ccc(OCCN2CCN(CCO)CC2)cc1` [Example S-7, 2-(2,6-difluorophenyl)-5-(4-(2-(4-(2-hydroxyethyl)piperazin-1-yl)ethoxy)phenyl)oxazole-4-carboxamide], the pIC50 at human Aurora A, at human FLT4 and on human FLT3 was greater than 5.00 in each case.

With `NC(=O)c1nc(-c2ccccc2F)oc1Nc1ccc(N2CCOCC2)cc1` [Example Q-23, 2-(2-Fluorophenyl)-5-(4-morpholinophenylamino)oxazole-4-carboxamide], the negative-log IC50 (pIC50) at human Aurora A, at human FLT4 and against human FLT3 was greater than 5.00 throughout.

With `CNCCC(=O)Nc1ccc(Nc2oc(-c3c(F)cccc3F)nc2C(N)=O)cc1` [Example V-3, 2-(2,6-difluorophenyl)-5-(4-(3-(methylamino)propanamido)phenylamino)oxazole-4-carboxamide], the negative-log IC50 (pIC50) on human Aurora A, at human FLT4 and against human FLT3 was greater than 5.00 each time.

In the case of `NCc1ccc(-c2oc(-c3c(F)cccc3F)nc2C(N)=O)cc1` [Example F-16, 5-(4-(aminomethyl)phenyl)-2-(2,6-difluorophenyl)oxazole-4-carboxamide], the pIC50 (commonly −log10 of the IC50, conventionally taken in molar units) at human Aurora A was greater than 5.00; on human FLT4, greater than 5.00; against human FLT3 it was greater than 4.00.

`CN1CCN(C(=O)c2ccc(Nc3oc(-c4c(F)cccc4F)nc3C(N)=O)cc2)CC1CCO` (stereo not shown) [Example U-24, 2-(2,6-difluorophenyl)-5-(4-(2-(2-hydroxyethyl)-1-methylpiperazine-4-carbonyl)phenylamino)oxazole-4-carboxamide]: the negative logarithm of the IC50 (pIC50) on human Aurora A, on human FLT4 and at human FLT3 was greater than 5.00 each time.

On to `COc1ccc(-c2oc(Nc3ccccc3OC)nc2C(N)=O)cc1` [Example R-2, 5-(4-methoxyphenyl)-2-(2-methoxyphenylamino)oxazole-4-carboxamide], for which the pIC50 on human Aurora A, on human FLT4 and at human FLT3 was greater than 5.00 each time.

As to `COc1ccc(-c2oc(-c3cccc4[nH]ccc34)nc2C(N)=O)cc1` [Example M-4, 2-(1H-indol-4-yl)-5-(4-methoxyphenyl)oxazole-4-carboxamide], the values for the pIC50 on human Aurora A, on human FLT4 and against human FLT3 were greater than 4.00, greater than 5.00 and greater than 5.00, respectively.

For the compound `COc1ccc(-c2oc(-c3cccc(C(F)(F)F)c3F)nc2C(N)=O)cc1` [Example N-7, 2-(2-fluoro-3-(trifluoromethyl)phenyl)-5-(4-methoxyphenyl)oxazole-4-carboxamide], the pIC50 at human Aurora A, at human FLT4 and against human FLT3 was greater than 4.00 each time.

`CC(=O)N1CCN(c2ccc(-c3oc(-c4c(F)cccc4F)nc3C(N)=O)cn2)CC1` [Example I-2, 5-(6-(4-acetylpiperazin-1-yl)pyridin-3-yl)-2-(2,6-difluorophenyl)oxazole-4-carboxamide]: the negative-log IC50 (pIC50) on human Aurora A, at human FLT4 and on human FLT3 was greater than 5.00 each time.

Consider `NC(=O)c1nc(-c2c(F)cccc2F)oc1Nc1ccc(N2CCCNCC2)cc1` [Example Q-15, 5-(4-(1,4-diazepan-1-yl)phenylamino)-2-(2,6-difluorophenyl)oxazole-4-carboxamide], for which the negative logarithm of the IC50 (pIC50) at human Aurora A, on human FLT4 and against human FLT3 was greater than 5.00 each time.

For the compound `NC(=O)c1nc(-c2c(F)cccc2F)oc1Nc1ccc(N2CCNCC2)nc1` [Example Q-47, 2-(2,6-difluorophenyl)-5-(6-(piperazin-1-yl)pyridin-3-ylamino)oxazole-4-carboxamide], the negative-log IC50 (pIC50) on human Aurora A, at human FLT4 and on human FLT3 was greater than 5.00 in each case.

`NC(=O)c1nc(-c2c(F)cccc2F)oc1-c1ccc(N)cc1` [Example F-22, 5-(4-aminophenyl)-2-(2,6-difluorophenyl)oxazole-4-carboxamide]: the negative logarithm of the IC50 (pIC50) on human Aurora A, on human FLT4 and against human FLT3 was greater than 5.00 in each case.

As for `NC(=O)c1nc(-c2c(F)cccc2F)oc1Nc1ccc(OC2CCNCC2)cc1` [Example Q-16, 2-(2,6-difluorophenyl)-5-(4-(piperidin-4-yloxy)phenylamino)oxazole-4-carboxamide], the pIC50 on human Aurora A, at human FLT4 and at human FLT3 was greater than 5.00 each time.

`NC(=O)c1nc(-c2ccccc2F)oc1-c1ccc(N2CCNCC2)cc1` [Example G-4, 2-(2-fluorophenyl)-5-(4-(piperazin-1-yl)phenyl)oxazole-4-carboxamide]: the pIC50 at human Aurora A, on human FLT4 and against human FLT3 was greater than 5.00 in each case.

On to `COc1ccc(-c2oc(-c3cccc(C(F)(F)F)c3)nc2C(N)=O)cc1` [Example N-8, 5-(4-methoxyphenyl)-2-(3-(trifluoromethyl)phenyl)oxazole-4-carboxamide], for which the pIC50 at human Aurora A and on human FLT3 was greater than 4.00 throughout.

Consider `CN1CCN(CCOc2ccc(-c3oc(-c4c(F)cccc4N4CCN(C)CC4)nc3C(N)=O)cc2)CC1` [Example S-2, 2-(2-fluoro-6-(4-methylpiperazin-1-yl)phenyl)-5-(4-(2-(4-methylpiperazin-1-yl)ethoxy)phenyl)oxazole-4-carboxamide], for which the negative-log IC50 (pIC50) on human Aurora A and against human FLT3 was greater than 4.00 throughout.

These data come from patent US9187465B2, “Oxazole tyrosine kinase inhibitors” (Sareum Limited, priority 2007, dated 2015).
